Measurements published in ChEMBL document CHEMBL1151194, “Synthetic analogues of the microtubule-stabilizing agent (+)-discodermolide: preparation and biological activity” (J Nat Prod, 2004).

Assays:
A549 = experiment: Cytotoxicity against human A549 cells; type: functional, cell-based
P388 = experiment: Cytotoxicity against mouse P388 cells; type: functional, cell-based
MCF7 = experiment: Cytotoxicity against human MCF7 cells; type: functional, cell-based
[1] = Cytotoxicity against human NCI/ADR cells; type: functional, cell-based; settings: NCI/ADR-RES
PANC-1 = experiment: Cytotoxicity against human PANC1 cells; type: functional, cell-based
Vero = experiment: Cytotoxicity against african green monkey Vero cells; type: cell-based; settings: Chlorocebus sabaeus

Row | Compound | IC50 (A549) | IC50 (P388) | IC50 (MCF7) | IC50 [1] | IC50 (PANC-1) | IC50 (Vero)
1 | C=C/C=C\[C@H](C)[C@H](OC(N)=O)[C@@H](C)[C@H](O)[C@@H](C)CC(=C)[C@H]1[C@H](C)[C@@H](O)[C@@H](C)[C@@H]1/C=C/C[C@@H]1OC(=O)[C@H](C)[C@@H](O)[C@H]1C | 100 nM | 190 nM | 130 nM | 3400 nM | 330 nM | 690 nM
2 | C=C/C=C\[C@H](C)[C@H](OC(N)=O)[C@@H](C)[C@H](O)[C@@H](C)/C=C(\C)[C@H]1[C@H](C)[C@@H](O)[C@@H](C)[C@@H]1/C=C/C[C@@H]1OC(=O)[C@H](C)[C@@H](O)[C@H]1C | 6640 nM | 2130 nM | 2100 nM | > 5000 nM | 6570 nM | 21900 nM
3 | C=C/C=C\[C@H](C)[C@H](OC(N)=O)[C@@H](C)[C@H](O)[C@@H](C)C/C(C)=C\[C@H](C)[C@H]1O[C@H](C[C@@H]2OC(=O)[C@H](C)[C@@H](O)[C@H]2C)C=C[C@@H]1C | 1460 nM | 1000 nM | 1800 nM | 4400 nM | 3130 nM | 3650 nM
4 | C=C/C=C\[C@H](C)[C@H](OC(N)=O)[C@@H](C)[C@H](O)[C@@H](C)C/C(C)=C\[C@H](C)[C@@H](O)[C@@H](C)/C=C\[C@@H](O)C[C@@H]1OC(=O)[C@H](C)[C@@H](O[Si](C)(C)C(C)(C)C)[C@H]1C | 1990 nM | 790 nM | 960 nM | 2800 nM | 2650 nM | 420 nM
5 | C=C/C=C\[C@H](C)[C@H](OC(N)=O)[C@@H](C)[C@H](O)[C@@H](C)C[C@@](C)(O)[C@H]1[C@H](C)[C@@H](O)[C@@H](C)[C@@H]1/C=C/C[C@@H]1OC(=O)[C@H](C)[C@@H](O)[C@H]1C (mixture of isomers) | 840 nM | 2420 nM | 2360 nM | > 5000 nM | 3030 nM | 4300 nM
6 | C=C/C=C\[C@H](C)[C@H](OC(N)=O)[C@@H](C)[C@H](O)[C@@H](C)C[C@](C)(O)[C@H]1[C@H](C)[C@@H](O)[C@@H](C)[C@@H]1/C=C/C[C@@H]1OC(=O)[C@H](C)[C@@H](O)[C@H]1C (relative stereo) | 2640 nM | 2090 nM | 1730 nM | > 5000 nM | > 5000 nM | 16600 nM
7 | C=C/C=C\[C@H](C)[C@H](OC(N)=O)[C@@H](C)[C@H](O)[C@H](C)C[C@](C)(O)[C@H]1[C@H](C)[C@@H](O)[C@@H](C)[C@@H]1/C=C/C[C@@H]1OC(=O)[C@H](C)[C@@H](O)[C@H]1C (relative stereo) | > 5000 nM | 7650 nM | 7350 nM | > 5000 nM | > 5000 nM | 11400 nM
8 | C=C/C=C\[C@H](C)[C@H](OC(N)=O)[C@@H](C)[C@H](O)[C@@H](C)C/C(C)=C\[C@H](C)[C@@H](O)[C@@H](C)/C=C\[C@@H](O)C[C@@H]1OC(=O)[C@H](C)[C@@H](O)[C@H]1C [DISERMOLIDE] | 15 nM | 33 nM | 2.4 nM | 17 nM | 49 nM | 30000 nM
